Results as given in ChEMBL document CHEMBL1799975 (J Med Chem, 2011).

Experiments:
[1] = Lipophilicity, log D of the compound at pH 7.4 by HPLC analysis; type: physicochemical; conditions: buffer
[2] = Volume of distribution at steady state in rat at 0.1 mg/kg, iv by LC-MS-MS analysis; type: ADME, organism-based; parameters: dose 0.1 mg/kg, route intravenous; conditions: in vivo, read-out: Vdss
[3] = Cmax in rat at 0.1 mg/kg, iv by LC-MS-MS analysis; type: ADME, organism-based; parameters: dose 0.1 mg/kg, route intravenous; conditions: in vivo
[4] = AUC in rat at 0.1 mg/kg, po by LC-MS-MS analysis; type: ADME, organism-based; parameters: dose 0.1 mg/kg, route oral; conditions: plasma
[5] = Mean residence time in rat at 0.1 mg/kg, po by LC-MS-MS analysis; type: ADME, organism-based; parameters: dose 0.1 mg/kg, route oral; conditions: in vivo
[6] = Oral bioavailability in rat at 0.1 mg/kg by LC-MS-MS analysis; type: ADME, organism-based; conditions: in vivo
[7] = Drug level in rat plasma at 0.2 mg/kg, iv after 15 mins by LC-MS-MS analysis; type: ADME, organism-based; parameters: dose 0.2 mg/kg, route intravenous
[8] = Drug level in rat plasma at 0.2 mg/kg, iv after 30 mins by LC-MS-MS analysis; type: ADME, organism-based; parameters: dose 0.2 mg/kg, route intravenous
[9] = Drug level in rat brain at 0.2 mg/kg, iv after 15 mins by LC-MS-MS analysis; type: ADME, organism-based; parameters: dose 0.2 mg/kg, route intravenous; conditions: read-out: Drug uptake
[10] = Drug level in rat brain at 0.2 mg/kg, iv after 30 mins by LC-MS-MS analysis; type: ADME, organism-based; parameters: dose 0.2 mg/kg, route intravenous; conditions: read-out: Drug uptake
[11] = Ratio of drug level in brain to plasma of rat at 0.2 mg/kg, iv after 15 mins by LC-MS-MS analysis; type: ADME, organism-based; parameters: dose 0.2 mg/kg, route intravenous; conditions: read-out: BPR
[12] = Ratio of drug level in brain to plasma of rat at 0.2 mg/kg, iv after 30 mins by LC-MS-MS analysis; type: ADME, organism-based; parameters: dose 0.2 mg/kg, route intravenous; conditions: read-out: BPR

SMILES | logD [1] | other results
CCC(=O)NCCc1c(C)nn2ccc3c(c12)CCO3 | 1.39 | –
CCc1nn2ccc3c(c2c1CCNC(C)=O)CCO3 | 1.48 | Vd [2]: 0.664 L/kg; Cmax [3]: 12.4 ng/mL; AUC [4]: 14.4 ng·h/mL; MRT [5]: 57 min; bioavailability [6]: 19.7%; concentration at […] [7]: 83.2 ng/mL; concentration at 0.5 h [8]: 55.9 ng/mL; concentration at […] [9]: 23.7 ng/g; concentration at 0.5 h [10]: 12.4 ng/g; Kp at […] [11]: 0.28; Kp at 0.5 h [12]: 0.22
CCC(=O)NCCc1c(CC)nn2ccc3c(c12)CCO3 | 1.71 | –
CC(=O)NCCc1c(C2CC2)nn2ccc3c(c12)CCO3 | 1.61 | –
CCC(=O)NCCc1c(C2CC2)nn2ccc3c(c12)CCO3 | 1.89 | –
CC(=O)NCCc1c(C(F)(F)F)nn2ccc3c(c12)CCO3 | 1.64 | –
CCC(=O)NCCc1c(C(F)(F)F)nn2ccc3c(c12)CCO3 | 1.94 | –
COc1ccc2[nH]cc(CCNC(C)=O)c2c1 [MELATONIN] | 0.5 | –

Continued, in another order:

logD [1] | SMILES | other results
3.49 | CC(=O)NCCC1=C(c2ccccc2)Cc2ccc3c(c21)CCO3 | –
1.66 | CC(=O)NCCc1c(-c2ccccc2)nc2ccc3c(n12)CCO3 | –
1.39 | CC(=O)NCCn1c(-c2ccccc2)nc2ccc3c(c21)CCO3 | –
2.04 | CC(=O)NCCc1c(-c2ccccc2)nn2ccc3c(c12)CCO3 | –
1.04 | CC(=O)NCCc1c(C)nn2ccc3c(c12)CCO3 | –
